# Like-named read-outs stand apart in the source and are kept apart here.
# Experiments:
# human DGKζ = human DGKζ (Homo sapiens (Human), UniProt Q13574); assay: DGKζ LIPGLO assay (extruded liposome substrate, ADP-Glo luminescence); format: biochemical; conditions: liposome assay; read-out: DGK zeta LIPGLO IC50
# human DGKα = human DGKα (Homo sapiens (Human), UniProt P23743); assay: DGKα ADPGLO assay (detergent/lipid micelle substrate); format: biochemical; conditions: truncated DGK alpha; read-out: DGK alpha ADPGLO (Truncated) IC50
# Sequence of human DGKα (P23743 whole entry, looked up, the tested form may be a part): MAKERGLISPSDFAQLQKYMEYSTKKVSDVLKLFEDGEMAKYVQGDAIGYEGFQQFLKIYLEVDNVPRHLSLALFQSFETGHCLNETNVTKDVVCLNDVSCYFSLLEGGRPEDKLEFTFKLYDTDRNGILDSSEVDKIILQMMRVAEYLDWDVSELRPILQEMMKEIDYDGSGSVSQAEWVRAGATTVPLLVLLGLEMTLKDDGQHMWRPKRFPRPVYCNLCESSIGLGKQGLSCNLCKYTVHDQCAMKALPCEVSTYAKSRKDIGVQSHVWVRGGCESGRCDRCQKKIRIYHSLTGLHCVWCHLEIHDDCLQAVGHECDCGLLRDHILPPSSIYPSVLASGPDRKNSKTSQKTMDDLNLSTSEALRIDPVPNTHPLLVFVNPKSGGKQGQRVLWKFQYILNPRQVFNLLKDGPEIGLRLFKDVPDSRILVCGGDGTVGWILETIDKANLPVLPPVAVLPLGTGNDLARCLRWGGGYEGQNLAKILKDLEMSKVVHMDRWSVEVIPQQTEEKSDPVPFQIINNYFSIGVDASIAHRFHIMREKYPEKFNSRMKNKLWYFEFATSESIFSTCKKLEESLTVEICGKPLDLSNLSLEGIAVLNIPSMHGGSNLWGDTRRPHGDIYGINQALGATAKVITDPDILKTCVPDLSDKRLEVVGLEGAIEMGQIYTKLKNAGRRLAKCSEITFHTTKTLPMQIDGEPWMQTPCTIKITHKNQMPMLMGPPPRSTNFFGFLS
# Method: DGK Alpha ADPGLO (Truncated) IC50 (uM)
# The detergent/lipid micelle was prepared by combining 15 g phosphatidylserine (Avanti 840035P) and 1 g diacylglycerol (8008110) and dissolving into 150 mL chloroform in a 2 L round bottom flask. Chloroform was removed under high vacuum by rotary evaporation. […] The lipid/detergent solution was split into 5 mL aliquots and stored at −80° C.
# whole blood (pERK) = assay: pERK Whole Blood assay (Table A; no whole-blood pERK method described); format: cell-based; conditions: normalized
# [1] = tested on: human venous whole blood (IFN-γ); assay: Human whole blood IFN-γ assay; format: cell-based; conditions: whole blood, normalized to 3 μM reference compound as 100% activation, read-out: IFN-γ Whole Blood Normalized EC50
# Method: Human venous whole blood (22.5 μL per well), obtained from healthy donors, was pre-treated with compounds for one hour at 37° C. in a humidified 95% air/5% CO2 incubator. The blood was stimulated with 2.5 μL anti-human CD3 and anti-CD28 mAb at a final concentration of 1 μg/mL each for 24 hours at 37° C. IFN-γ in the supernatants was measured using AlphLISA kit (Cat #AL217).
# Sequence of human DGKζ (Q13574 other isoform, or with tags, fused parts or gaps): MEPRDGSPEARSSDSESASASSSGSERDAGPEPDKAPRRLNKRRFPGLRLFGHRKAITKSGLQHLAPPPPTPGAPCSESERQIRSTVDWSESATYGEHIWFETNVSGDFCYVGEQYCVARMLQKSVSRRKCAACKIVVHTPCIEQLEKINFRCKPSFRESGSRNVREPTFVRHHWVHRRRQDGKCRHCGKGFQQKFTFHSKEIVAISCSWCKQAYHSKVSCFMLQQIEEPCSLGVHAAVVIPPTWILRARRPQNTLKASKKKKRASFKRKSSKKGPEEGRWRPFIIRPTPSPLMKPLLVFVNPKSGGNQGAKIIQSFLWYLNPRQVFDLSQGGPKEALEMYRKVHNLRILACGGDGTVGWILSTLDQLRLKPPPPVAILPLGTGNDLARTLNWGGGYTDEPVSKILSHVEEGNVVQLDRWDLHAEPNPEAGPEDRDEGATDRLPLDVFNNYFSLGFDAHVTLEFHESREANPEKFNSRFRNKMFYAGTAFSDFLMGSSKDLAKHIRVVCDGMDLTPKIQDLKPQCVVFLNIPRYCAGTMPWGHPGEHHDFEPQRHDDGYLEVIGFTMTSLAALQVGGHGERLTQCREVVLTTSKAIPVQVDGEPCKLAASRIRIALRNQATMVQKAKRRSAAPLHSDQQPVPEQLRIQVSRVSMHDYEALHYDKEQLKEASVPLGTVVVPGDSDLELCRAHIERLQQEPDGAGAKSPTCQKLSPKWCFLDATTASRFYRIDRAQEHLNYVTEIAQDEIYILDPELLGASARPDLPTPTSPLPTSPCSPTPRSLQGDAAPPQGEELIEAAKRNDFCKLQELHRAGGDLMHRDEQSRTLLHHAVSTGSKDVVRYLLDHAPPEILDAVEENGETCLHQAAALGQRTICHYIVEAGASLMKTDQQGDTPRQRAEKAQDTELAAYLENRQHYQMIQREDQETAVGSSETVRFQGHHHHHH
IC50 (human DGKζ),IC50 (human DGKα),SMILES,IC50 (whole blood (pERK)),EC50 [1],EC50 ([1]; Homo sapiens)
120 nM,58 nM,"CCC(c1ccc(OC2CC2)cc1)N1C[C@H](CC)N(c2nc(=O)n(C)c3ccc(C#N)nc23)C[C@H]1CC (stereo partly drawn) [Example 255, 4-((2S,5R)-4-(1-(4-cyclopropoxyphenyl)propyl)-2,5-diethylpiperazin-1-yl)-1-methyl-2-oxo-1,2-dihydropyrido[3,2-d]pyrimidine-6-carbonitrile]",540 nM,–,–
310 nM,14 nM,CC[C@H]1CN(C(C)c2ccc(OC(C)(C)COC)cc2)[C@H](CC)CN1c1nc(=O)n(C)c2ccc(C#N)nc12 (stereo partly shown) [Example 188],270 nM,73 nM,–
1150 nM,330 nM,"CC[C@H]1CN(C(c2ccc(OC)cc2)C(C)C)[C@H](CC)CN1c1nc(=O)n(C)c2ccc(C#N)nc12 (stereo partly drawn) [Example 250, 4-((2S,5R)-2,5-diethyl-4-(1-(4-methoxyphenyl)-2-methylpropyl)piperazin-1-yl)-1-methyl-2-oxo-1,2-dihydropyrido[3,2-d]pyrimidine-6-carbonitrile]",1800 nM,–,–
–,96 nM,"CC[C@@H]1CN(c2nc(=O)n(C)c3ccc(C#N)nc23)[C@@H](C)CN1C(c1ccc(Cl)cc1)c1ccccn1 (single isomer, unassigned) [Example 96]",200 nM,57 nM,–
–,58 nM,"CCC(c1ccc(C(F)(F)F)cc1)N1C[C@H](CC)N(c2nc(=O)n(C)c3ccc(C#N)nc23)C[C@H]1CC (single isomer, unassigned) [Example 6]",6980 nM,–,–
125000 nM,42700 nM,"CC[C@H]1CN(C(C)c2ccc(CN3CC4(COC4)C3)cc2)[C@H](CC)CN1c1nc(=O)n(C)c2ccc(C#N)nc12 (stereo partly drawn) [Example 280, 4-((2S,5R)-4-(1-(4-((2-oxa-6-azaspiro[3.3]heptan-6-yl)methyl)phenyl)ethyl)-2,5-diethylpiperazin-1-yl)-1-methyl-2-oxo-1,2-dihydropyrido[3,2-d]pyrimidine-6-carbonitrile]",150 nM,–,–
430 nM,110 nM,"CC[C@H]1CN(C(C)c2ccc(CN3C[C@@H](C)O[C@@H](C)C3)cc2)[C@H](CC)CN1c1nc(=O)n(C)c2ccc(C#N)nc12 (stereo partly drawn) [Example 291, 4-((2S,5R)-4-(1-(4-(((2S,6R)-2,6-dimethylmorpholino)methyl)phenyl)ethyl)-2,5-diethylpiperazin-1-yl)-1-methyl-2-oxo-1,2-dihydropyrido[3,2-d]pyrimidine-6-carbonitrile]",390 nM,–,–
59 nM,36 nM,"CCC(c1ccc(OC(C)C)cc1)N1C[C@H](CC)N(c2nc(=O)n(C)c3ccc(C#N)nc23)C[C@H]1CC (stereo partly drawn) [Example 234, 4-((2S,5R)-2,5-diethyl-4-(1-(4-isopropoxyphenyl)propyl)piperazin-1-yl)-1-methyl-2-oxo-1,2-dihydropyrido[3,2-d] pyrimidine-6-carbonitrile]",80 nM,–,–
62400 nM,17000 nM,"CC[C@H]1CN(C(C)c2ccc(CN3CC4(COC4)C3)cc2)[C@H](CC)CN1c1nc(=O)n(C)c2ccc(C#N)nc12 (stereo partly drawn) [Example 279, 4-((2S,5R)-4-(1-(4-((2-oxa-6-azaspiro[3.3]heptan-6-yl)methyl)phenyl)ethyl)-2,5-diethylpiperazin-1-yl)-1-methyl-2-oxo-1,2-dihydropyrido[3,2-d]pyrimidine-6-carbonitrile]",2920 nM,–,–
17 nM,170 nM,"CC[C@H]1CN(C(c2ccc(OC(C)C)cc2)C(C)C)[C@H](CC)CN1c1nc(=O)n(C)c2ccc(C#N)nc12 (stereo partly drawn) [Example 261, 4-((2S,5R)-2,5-diethyl-4-(1-(4-isopropoxyphenyl)-2-methylpropyl)piperazin-1-yl)-1-methyl-2-oxo-1,2-dihydropyrido[3,2-d]pyrimidine-6-carbonitrile]",680 nM,–,–
18 nM,34 nM,"CCC(c1ccc(C(C)(C)C#N)cc1)N1C[C@H](CC)N(c2nc(=O)n(C)c3ccc(C#N)nc23)C[C@H]1CC (stereo partly drawn) [Example 251, 4-((2S,5R)-4-(1-(4-(2-cyanopropan-2-yl)phenyl)propyl)-2,5-diethylpiperazin-1-yl)-1-methyl-2-oxo-1,2-dihydropyrido[3,2-d]pyrimidine-6-carbonitrile]",1580 nM,–,–

# Second part, the compound before the results:
SMILES,IC50 (human DGKζ),IC50 (human DGKα),IC50 (whole blood (pERK)),EC50 [1],EC50 ([1]; Homo sapiens)
"CCC(c1ccc(C2CC2)cc1F)N1C[C@H](C)N(c2nc(=O)n(C)c3ccc(C#N)nc23)C[C@H]1CC (stereo partly drawn) [Example 302, 4-((2S,5R)-4-(1-(4-cyclopropyl-2-fluorophenyl)propyl)-5-ethyl-2-methylpiperazin-1-yl)-1-methyl-2-oxo-1,2-dihydropyrido[3,2-d]pyrimidine-6-carbonitrile]",43 nM,9 nM,34 nM,–,–
"CC[C@@H]1CN(c2nc(=O)n(C)c3ccc(C#N)nc23)[C@@H](C)CN1C(c1ccc(F)cc1)c1ccc(C(F)(F)F)cn1 (single isomer, unassigned) [Example 47]",–,–,20 nM,–,32 nM
"C[C@@H]1CN(c2nc(=O)n(C)c3ccc(C#N)nc23)[C@@H](C)CN1C(c1ccc(F)cc1)c1ccc(C(F)(F)F)cn1 (single isomer, unassigned) [Example 127]",–,–,240 nM,–,410 nM
"CC[C@H]1CN(C(C)c2cccc(OC(F)(F)F)n2)[C@H](CC)CN1c1nc(=O)n(C)c2ccc(C#N)nc12 (stereo partly drawn) [Example 246, 4-((2S,5R)-2,5-diethyl-4-(1-(6-(trifluoromethoxy)pyridin-2-yl)ethyl)piperazin-1-yl)-1-methyl-2-oxo-1,2-dihydropyrido[3,2-d]pyrimidine-6-carbonitrile]",5850 nM,4670 nM,440 nM,–,–
"CC[C@H]1CN(C(c2ccc(OC)cc2)C(C)C)[C@H](CC)CN1c1nc(=O)n(C)c2ccc(C#N)nc12 (stereo partly drawn) [Example 249, 4-((2S,5R)-2,5-diethyl-4-(1-(4-methoxyphenyl)-2-methylpropyl)piperazin-1-yl)-1-methyl-2-oxo-1,2-dihydropyrido[3,2-d]pyrimidine-6-carbonitrile]",40 nM,–,420 nM,–,–
"CC[C@H]1CN(C(c2ccc(F)cc2)c2nc(C3CC3)no2)[C@H](CC)CN1c1nc(=O)n(C)c2ccc(C#N)nc12 (single isomer, unassigned) [Example 111]",–,–,90 nM,21 nM,–
"CC[C@H]1CN(C(C)c2ccc(CN3CCC[C@@H](O)C3)cc2)[C@H](CC)CN1c1nc(=O)n(C)c2ccc(C#N)nc12 (stereo partly drawn) [Example 290, 4-((2S,5R)-2,5-diethyl-4-(1-(4-(((R)-3-hydroxypiperidin-1-yl)methyl)phenyl)ethyl)piperazin-1-yl)-1-methyl-2-oxo-1,2-dihydropyrido[3,2-d]pyrimidine-6-carbonitrile]",57200 nM,1950 nM,20000 nM,–,–
"CCC(c1ccc(C(C)(C)C#N)cc1)N1C[C@H](CC)N(c2nc(=O)n(C)c3ccc(C#N)nc23)C[C@H]1CC (stereo partly drawn) [Example 252, 4-((2S,5R)-4-(1-(4-(2-cyanopropan-2-yl)phenyl)propyl)-2,5-diethylpiperazin-1-yl)-1-methyl-2-oxo-1,2-dihydropyrido[3,2-d]pyrimidine-6-carbonitrile]",780 nM,270 nM,4280 nM,–,–
"CC[C@H]1CN(C(c2ccc(F)cc2)c2nc(C3CC3)no2)[C@H](CC)CN1c1nc(=O)n(C)c2ccc(C#N)nc12 (single isomer, unassigned) [Example 110]",–,–,15 nM,9 nM,–
"CC[C@@H]1CN(c2nc(=O)n(C)c3ccc(C#N)nc23)[C@@H](C)CN1C(c1ccc(F)cc1)c1ccc(C(F)(F)F)cn1 (stereo partly drawn) [Example 46, 4-((2S,5R)-5-Ethyl-4((4-fluorophenyl)(5-(trifluoromethyl)pyridin-2-yl)methyl)-2-methylpiperazin-1-yl)-1-methyl-2-oxo-1,2-dihydropyrido[3,2-d]pyrimidine-6-carbonitrile]",–,–,43 nM,–,73 nM
"CC[C@@H]1CN(c2nc(=O)n(C)c3ccc(C#N)nc23)[C@@H](C)CN1C(c1ccc(Cl)cc1)c1ccccn1 (single isomer, unassigned) [Example 95]",–,–,10500 nM,370 nM,–
"CC[C@@H]1CN(c2nc(=O)n(C)c3ccc(C#N)nc23)[C@@H](C)CN1C(C)c1ccc(C(F)(F)F)cc1 (single isomer, unassigned) [Example 8]",–,140 nM,180 nM,–,–
"CCC(c1ccc(OC2CC2)cc1)N1C[C@H](CC)N(c2nc(=O)n(C)c3ccc(C#N)nc23)C[C@H]1CC (stereo partly drawn) [Example 256, 4-((2S,5R)-4-(1-(4-cyclopropoxyphenyl)propyl)-2,5-diethylpiperazin-1-yl)-1-methyl-2-oxo-1,2-dihydropyrido[3,2-d]pyrimidine-6-carbonitrile]",2940 nM,1510 nM,290 nM,–,–
"CC[C@H]1CN(C(C)c2ccc(CN3C[C@@H](C)O[C@@H](C)C3)cc2)[C@H](CC)CN1c1nc(=O)n(C)c2ccc(C#N)nc12 (stereo partly drawn) [Example 292, 4-((2S,5R)-4-(1-(4-(((2S,6R)-2,6-dimethylmorpholino)methyl)phenyl)ethyl)-2,5-diethylpiperazin-1-yl)-1-methyl-2-oxo-1,2-dihydropyrido[3,2-d]pyrimidine-6-carbonitrile]",1010 nM,210 nM,1100 nM,–,–
